Usually logP stands for a log measure of how a compound divides between an organic and an aqueous phase. Lower therefore signals a more hydrophilic compound. As a reminder, the LD50 is the dose expected to kill half of the subjects tested. The term solubility denotes the concentration that dissolves in the medium under given conditions. Low readings indicate little dissolved substance, high ones much dissolved substance. As usually defined, the clearance is the rate of elimination divided by the concentration. By AUC is commonly meant the area under the concentration-time curve, a measure of exposure. Lower therefore signals low exposure.

Data set [1] in a line: physchem. The following applies: octanol:water.
Data set [2] in a line: in vivo. The following applies: mouse.
Data set [3] can be described thus: 1-electron reduction potential / electron affinity. The data set is classed as physicochemical. The note with it: for E7^1 (1-electron reduction potential): Table 1; for electron affinity relative to MIS: in words.
Another data set concerns BALB/c mice. The note with it: for acute toxicity relative to MIS: from LD50 data of Table 1.
The conditions of data set [4]: method of Fujita et al.
Data set [5] can be described thus: accelerated rotarod neurotoxicity test. The note with it: for factor by which less neurotoxic than MIS: at least a factor of; for Dose to Give Equivalent Neurotoxicity Relative to MIS: daily dosing, MIS = 1. On the technique in general: In the rotarod test animals must keep their balance on a rotating rod.
From the text: Performance and toxicity determinations were made after four-and-one-half weeks of daily dosing.
Data set [6] in a line: physchem. The following applies: 0.9% saline.
For data set [7] the following is noted: for tumor/brain ratio relative to MIS: i.p., EMT6 tumor bearing mice, FIGS. 1 and 2; for crossing of the blood/brain barrier relative to MIS: in words.
Method: Each test compound was formulated immediately before administration to the animals in Hanks' balanced salt solution at a concentration such that the volume injected intraperitoneally was 0.05 ml per g body weight.
The mice were injected intraperitoneally and at various times were bled by cardiac puncture under anesthesia. Plasma was obtained by centrifugation and stored frozen at -20° C. The tumor and whole brain were taken immediately after cardiac puncture and stored frozen at -20° C.
The brain/plasma ratio is the mean value from all the mice for each compound.
Data set [8] can be described thus: in vivo. The following applies: dog.
Method: (§1) The imidazoles were formulated in a 0.9% sodium chloride solution at a concentration of 5%. Doses of 0.25-1.0 mmole/kg of each compound were administered to normal adult, male cross-bred dogs and subsequent plasma concentrations were monitored by high performance liquid chromatography. Samples of brain, cerebrospinal fluid (CSF), and peripheral nerve (PNS) were removed for assay from similarly dosed dogs over the same test period.
A further data set deals with EMT6 tumor cells. Put plainly: radiosensitization of EMT6 tumor cells. The note with it: in words.
The nature of data set [9]: plasma concentration after oral administration of acetate esters versus parent drugs. Type of data set: in vivo. The note with it: mice, 4 or 5 mmole/kg.
A short description of data set [10]: plasma pharmacokinetics and neural tissue exposure (AUC) in dogs. The note with it: for AUC / clearance: dog; for AUC: 500 umol/kg; for AUC PNS: peripheral nerve.
Method: as §1
A short description of data set [11]: peak tumor concentration in dogs bearing spontaneous tumors. The following applies: for Mean Peak Tumor Concentration: dogs with spontaneous tumors, i.v. bolus 0.5 micromoles/g.
Another data set has as its system hypoxic tumor cells. The note with it: cited from earlier work.
The next data set relates to tumors in vivo. The note with it: tumors in vivo and cells; Brown and Lee, 1979; cited from earlier work.
Setting [12] is: dogs, standardized for 0.5 mmole/kg.

Molecules are shown by their SMILES. Values after ≈ are worked out from the molar mass of the structure shown.

Compound `CCOCC(O)Cn1ccnc1[N+](=O)[O-]` (stereo not shown) [Compound 2] had a log partition coefficient (logP) in the data set “physchem [1]” of 0.104. This compound returned an LD50 in the data set “in vivo [2]” of over 1100 mg/kg. In addition, the “E7^1 (1-electron reduction potential)” value in [3] was -391 mV.
In turn, `O=C(Cn1ccnc1[N+](=O)[O-])NCCO` [SR-2508, N-(2-hydroxyethyl)-2-(2-nitro-1-imidazolyl)acetamide] had a logP in “physchem [1]” of -1.34. Also, the “acute toxicity relative to MIS” value in the data set with BALB/c mice is listed as “about three to five times less”. Moreover, the “octanol:water partition coefficient” value in data set [4] amounted to 0.046. For the same compound, the “factor by which less neurotoxic than MIS” value in data set [5] was 3-5. In addition, the “Dose to Give Equivalent Neurotoxicity Relative to MIS” value in [5] (four-and-one-half weeks) is on record as over 3.3. The solubility in “physchem [6]” was about 200 mg/mL (≈ 934 mM). In the data set “in vivo [2]”, this compound gave a 50% lethal dose (LD50) of 4900 mg/kg. Also, in data set [3], the “E7^1 (1-electron reduction potential)” value is given as -388 mV and the “electron affinity relative to MIS” value was “similar”. For the same compound, in [7], the “tumor/brain ratio relative to MIS” value was “an order of magnitude greater than MIS” and the “crossing of the blood/brain barrier relative to MIS” value is “to a lower degree than does MIS”. This compound also gave a clearance in “in vivo [8]” of 3.5 mL/min/kg. Also, the “radiosensitizing efficiency relative to MIS” value with EMT6 tumor cells is recorded as “comparable radiosensitizing activity”.
`O=[N+]([O-])c1nccn1CC(O)CO` (stereo not shown) [Compound 6] gave a logP in the data set “physchem [1]” of -0.886. The 50% lethal dose (LD50) in “in vivo [2]” turned out to be 3100 mg/kg. Further, the “E7^1 (1-electron reduction potential)” value in data set [3] is recorded as -389 mV.
Turning to `CC(=O)OCCNC(=O)Cn1ccnc1[N+](=O)[O-]` [acetate ester of SR-2508], the “peak plasma concentration of SR-2508 or SR-2555 after oral ester relative to oral parent drug” value in data set [9] was “significantly higher”.
On to `O=[N+]([O-])c1nccn1CCN1CCOCC1`, for which the log partition coefficient (logP) in the data set “physchem [1]” is -0.0862. In “in vivo [2]”, the median lethal dose (LD50) was about 900 mg/kg. Moreover, in data set [3], the “E7^1 (1-electron reduction potential)” value is -390 mV.
Turning to `O=C(Cn1ccnc1[N+](=O)[O-])N(CCO)CCO` [SR-2555, N,N-di-(2-hydroxyethyl)-2-(2-nitro-1-imidazolyl)acetamide], the logP in the data set “physchem [1]” is -1.59. In the data set with BALB/c mice, the “acute toxicity relative to MIS” value is reported as “about three to five times less”. Besides, the “octanol:water partition coefficient” value in data set [4] was determined as 0.026. In data set [5], the “factor by which less neurotoxic than MIS” value was 3-5. Besides, in [5] (daily dose 3.0 mg/g, four-and-one-half weeks), the “Performance Relative to Controls” value stood at 1.07 ± 0.16. The “Dose to Give Equivalent Neurotoxicity Relative to MIS” value in data set [5] (four-and-one-half weeks) is reported as over 5. This compound also returned a solubility in the data set “physchem [6]” of over 300 mg/mL. In the data set “in vivo [2]”, this compound gave an LD50 of over 7700 mg/kg. Also, the AUC in [10] (cerebrospinal fluid, AUC CSF, dogs, standardized for 0.5 mmole/kg) came to 170 µM·h. In addition, the clearance in [10] (plasma) was 4.33 mL/min/kg. In addition, in data set [10] (plasma, AUC Plasma, dogs, standardized for 0.5 mmole/kg), the exposure (AUC) is 1620 µM·h. In data set [10] (dogs, in words), the “clearance rate relative to MIS” value is listed as “considerably more rapid than for MIS”; the “penetration into brain, CSF and peripheral nerves relative to MIS” value is reported as “considerably lower”; the “total exposure of neural tissues (AUC) relative to MIS” value was “significantly smaller than for MIS”. Besides, in data set [10] (setting [12]), the “AUC PNS” value is recorded as 0.75 μ moles.hr.ml^ -1 or g^-1 and the “AUC Brain” value was 0.51 μ moles.hr.ml^ -1 or g^-1. Also, in [3], the “E7^1 (1-electron reduction potential)” value was -398 mV and the “electron affinity relative to MIS” value was “similar”. In data set [7], the “tumor/brain ratio relative to MIS” value is “an order of magnitude greater than MIS” and the “crossing of the blood/brain barrier relative to MIS” value is “to a lower degree than does MIS”. Moreover, in the data set on EMT6 tumor cells, the “radiosensitizing efficiency relative to MIS” value is “comparable radiosensitizing activity”. The “Mean Peak Tumor Concentration” value in [11] was found to be 1.30 μ moles.g^-1. Further, in data set [11] (dogs, i.v. bolus, in words), the “peak tumor concentration relative to MIS” value was “considerably higher than MIS” and the “time of peak tumor concentration relative to MIS” value was “considerably earlier than MIS”.
With `COCC(O)Cn1ccnc1[N+](=O)[O-]` (stereo not shown) [MIS, misonidazole, reference compound], the “Acute LD50” value in the data set with BALB/c mice (BALB/c mice (20-25 g)) is 1.8(1.3-2.6) mg/g. Further, the “Dose to Give Equivalent Neurotoxicity Relative to MIS” value in data set [5] (four-and-one-half weeks) stood at 1. The same compound returned an AUC in [10] (cerebrospinal fluid) of 2660 µM·h. For the same compound, in [10] (plasma), the clearance was 1.5 mL/min/kg and the area under the curve (AUC) was found to be 3680 µM·h. In addition, in data set [10] (setting [12]), the “AUC PNS” value is listed as 2.25 μ moles.hr.ml^ -1 or g^-1 and the “AUC Brain” value is listed as 2.32 μ moles.hr.ml^ -1 or g^-1. The “radiosensitization at recommended dose” value with hypoxic tumor cells (conventional multifraction radiotherapy regime) is reported as “suboptimal radiosensitization”. Moreover, the “radiosensitizing activity relative to metronidazole” value with hypoxic tumor cells (in words) is “greater radiosensitizing activity of the two compounds”. For the same compound, in the data set on hypoxic tumor cells (man, in words), the “clinical limitation by toxicity” value is reported as “limited by its neurotoxicity”. For the same compound, the “recommended maximum total dose (neurotoxicity)” value in the data set on hypoxic tumor cells (man, per body surface, Dische et al) was at most 12 g/m^2. The “E7^1 (1-electron reduction potential)” value in [3] was -389 mV. Also, the “Mean Peak Tumor Concentration” value in [11] was found to be 0.56 μ moles.g^-1.
For `C[S+]([O-])CCn1ccnc1[N+](=O)[O-]` (stereo not shown) [Compound 7], the logP in the data set “physchem [1]” is -1.22. In addition, the 50% lethal dose (LD50) in “in vivo [2]” was about 2000 mg/kg.
`O=C(Cn1ccnc1[N+](=O)[O-])NCC(O)CO` (stereo not shown) [Compound 10] gave a logP in the data set “physchem [1]” of -1.85. For the same compound, the “radiosensitizing activity relative to MIS” value with tumors in vivo is given as “significantly inferior to MIS”. This compound also displayed a median lethal dose (LD50) in “in vivo [2]” of over 6100 mg/kg. Besides, in data set [3], the “E7^1 (1-electron reduction potential)” value is listed as -392 mV.
With `O=[N+]([O-])c1nccn1CC(O)CCl` (stereo not shown) [Compound 1], in the data set “physchem [1]”, the logP is 0.176. In “in vivo [2]”, this compound gave an LD50 of about 180 mg/kg. Further, in data set [3], the “E7^1 (1-electron reduction potential)” value is recorded as -384 mV.
In the data set “physchem [6]”, `COC(=O)Cn1ccnc1[N+](=O)[O-]` [methyl 2-nitroimidazole-1-acetate] had a solubility of 13.6 mg/mL (≈ 73.5 mM).
The compound `O=[N+]([O-])c1nccn1CC(O)CF` (stereo not shown) [Compound 4] had a logP in the data set “physchem [1]” of -0.357. Also, in the data set “in vivo [2]”, the 50% lethal dose (LD50) was about 900 mg/kg. The “E7^1 (1-electron reduction potential)” value in data set [3] was -383 mV.
